Measurements taken from EP1148124A1 (priority 1999, dated 2000).
Like-named read-outs stand apart in the source and are kept apart here.

Test: Reporter assay (No. 1), cell number reporter gene (sea pansy luciferase, pRL-TK), clone of Example 2
Format: cell-based
Details: mouse, hepa1c1c7 cells, about 40 hours, ratio to 0 pg/ml, read-out: Amount of luminescence by sea pansy luciferase (from pRL-TK) Ratio
Experimental: For the measured values of the amount of expression of the cell number reporter gene, a ratio is determined of the measured value in the test substance added group to the measured value in the only solvent added group (control group). When the ratio is, for example, in the range of 0.8 to 1.2, the measured value of the amount of expression of the ligand responsive reporter gene in the test substance added group is selected for evaluating the agonist or antagonist activity of the test substance against the ability of a ligand responsive transcriptional regulatory factor to promote transcription. When the ratio takes a small value such as smaller than 0.8, for example, it is possible that the test substance has cytotoxicity. In contrast, when the ratio takes a large value such as greater than 1.2, for example, it is possible that the test substance has activity against the transcriptional regulatory system of a gene without mediation of a ligand responsive transcriptional regulatory factor. However, the range of this ratio suitable for selecting the measured value of the amount of expression of the […] reporter gene may vary depending on certain properties of the present cells used and the conditions of measurement, and it is not limited to the above examples of numerical values.
Separately, plasmid pGV-Ya-XREx5 (ligand responsive reporter gene containing plasmid) constructed in Example 1 was digested with Bam HI. Further, plasmid pRL-TK (cell number reporter gene containing plasmid; marketed by Toyo Ink) containing the sea pansy luciferase gene used as the cell number reporter gene was digested with Bam HI, and neomycin resistance (aminoglycoside phosphotransferase) gene containing plasmid pRc/RSV (available from INVITROGEN) was digested with Hind III. These three digested plasmids, i.e., Bam HI digested pGV-Ya-XREx5 (2.8 µg), Bam HI digested pRL-TK (2.8 µg), and Hind III digested pRc/RSV (0.5 µg), were then mixed with 300 µl of αMEM medium (mixture A), while 36 µl of lipofectin (available from GIBCO-BRL) was mixed with 300 µl of αMEM medium (mixture B). After being left at room temperature for 30 minutes, mixtures A and B were combined together and left at room temperature for 10 minutes. The Hepa1clc7 cells cultured overnight as described above were then washed once with αMEM medium, to which there was added a solution prepared by adding and mixing additional 5.4 ml of αMEM medium to the above mixture (A + B). Culturing of the resulting mixture was carried out for 5 hours. The medium was then replaced with 10% serum containing αMEM medium, followed by further culturing overnight. Subsequently, the cells were scratched from the petri dishes and collected, and the collected cells were suspended in 10% serum containing αMEM medium to have the total volume of 100 ml. The resulting cell suspension was plated on 96 well plates at a ratio of 100 µl/well. After these plates were cultured overnight, a medium prepared by dissolving geneticin (hereinafter referred to as "G418") in 10% serum containing αMEM medium to have a concentration of 1.6 mg/ml was added at a ratio of 100 µl/well (G418 final concentration 800 µg/ml). Culturing was further continued for 3 weeks, during which the medium was replaced with 10% serum containing αMEM medium containing 800 µg/ml G418 at a rate of once per week. The volume of the medium was set at 200 µl/well. After said 3 weeks, cells were scratched from the wells in which colony formation had been observed, and collected (for 192 wells), and the collected cells were divided into three and independently plated on different plates, followed by continuous culturing for 4 days. To the first plate, only DMSO was added (solvent control), and to the second plate, 3-methylcholanthrene (hereinafter referred to as "3-MC") dissolved in DMSO was added so that the final concentration of 3-MC in the second plate came to 10 µM per well. The first and second plates were then cultured overnight. […]

Compound: Clc1cc2c(cc1Cl)Oc1cc(Cl)c(Cl)cc1O2 [TCDD, 2,3,7,8-tetrachlorodibenzo-p-dioxin]
- viability at 40 h (final conc. 0.02 pg/ml): 100%
- viability at 40 h (final conc. 0.2 pg/ml): 90%
- viability at 40 h (final conc. 2 pg/ml): 90%
- viability at 40 h (final conc. 20 pg/ml): 80%
- viability at 40 h (final conc. 200 pg/ml): 70%
- viability at 40 h (final conc. 2000 pg/ml): 60%
- viability at 40 h (final conc. 20000 pg/ml): 60%
